Experimental data taken from patent US20110201603A1, “Novel Acylaminobenzamide Derivatives” (Bayer CropScience AG, priority 2008, published 2011).

Experiments:
Assay type in all cases: in vivo
[1] = system: Ctenocephalides felis; assay: Ctenocephalides felis test (CTECFE), blood feeding; conditions: application rate of 100 ppm in cattle blood; adult unfed fleas; after 2 days
Experimental: (§1) Solvent: dimethyl sulfoxide
To produce a suitable preparation of active compound, 10 mg of active compound are dissolved in 0.5 ml solvent, and the concentrate is diluted with cattle blood to the desired concentration.
Approximately 10 to 15 adult unfed (Ctenocepahlides felis) are placed in flea chambers. The blood chamber, are sealed with paraffin on the bottom are filled with cattle blood supplied with compound solution and placed on top of the flea chamber, so that the fleas are able to suck the blood. The blood chamber is heated to 37° C. whereas the flea chamber is kept at room temperature. After 2 days mortality in % is determined. 100% means that all the fleas have been killed; 0% means that none of the fleas have been killed.

[2] = system: Musca domestica; assay: Musca domestica test; conditions: application rate of 100 ppm; adults, sugar sponge; after 2 days
Experimental: as §1
To produce a suitable preparation of active compound, 10 mg of active compound are dissolved in 0.5 ml solvent, and the concentrate is diluted with water to the desired concentration. Prior to the assay, a piece or kitchen sponge is soaked with a mixture of sugar and compound solution and placed into a container. 10 adults (Musca domestica) are placed into the container and closed with a perforated lid. After 2 days mortality in % is determined. 100% means that all the flies have been killed; 0% means that none of the flies have been killed.

[3] = system: tobacco cutworm (Spodoptera litura) larvae; assay: Test against tobacco cutworm (Spodoptera litura) larvae, leaf dip; conditions: active compound concentration of 100 ppm; third-instar larvae on sweet potato leaves; after 7 days
Experimental: (§2) Unless not mentioned otherwise, the test solutions were prepared as follows:
(§3) Containing as solvent: Dimethylformamide, 3 parts by weight; and as emulsifier: Polyoxyethylene alkyl phenyl ether, 1 part by weight
(§4) To prepare the test solution, 1 part by weight of an active compound is mixed with the above-mentioned amount of solvent containing the above-mentioned amount of emulsifier, and the mixture is diluted with water to the desired concentration.
The leaves of sweet potato were immersed in the test solution at the appropriate concentration, and the leaves were dried in air. The leaves were then placed in a petri dish having a diameter of 9 cm, and ten third-instar larvae of tobacco cutworm were released therein. The petri dish was placed in a temperature-controlled chamber at 25° C. After 2 days and 4 days sweet potato leaves were additionally added. After 7 days, the number of dead larvae was counted to calculate the insecticidal activity. An insecticidal activity of 100% means that all larvae were killed, whereas an insecticidal activity of 0% means that no larva was killed. In the current test, the results of two petri dishes for each partition were averaged.

[4] = system: Lucilia cuprina larvae; assay: Lucilia cuprina test; conditions: application rate of 100 ppm; larvae on minced horse meat; after 2 days
Experimental: as §1
To produce a suitable preparation of active compound, 10 mg of active compound are dissolved in 0.5 ml solvent, and the concentrate is diluted with water to the desired concentration. Approximately 20-30 (Lucilia cuprina larvae) are transferred into a test tube containing 1 cm^3 of minced horse meat and 0.5 ml aqueous dilution of test compound. After 2 days mortality in % is determined. 100% means that all the larvae have been killed; 0% means that none of the larvae have been killed.

[5] = system: cucurbit leaf beetle (Aulacophora femoralis); assay: Test against cucurbit leaf beetle (Aulacophora femoralis), leaf dip; conditions: active compound concentration of 100 ppm; second-instar larvae on cucumber leaves; after 7 days
Experimental: as §2, §3, §4
Cucumber leaves were immersed in the test solution at the appropriate concentration, and the leaves were dried in air. The leaves were then placed in a plastic cup containing sterilized black soil, and five second-instar larvae of cucurbit leaf beetle were released therein. The plastic cup was placed in a temperature-controlled chamber at 25° C. After 7 days, the number of dead larvae was counted, and thus the insecticidal activity was calculated. An insecticidal activity of 100% means that all beetles were killed, whereas an insecticidal activity of 0% means that no beetle was killed.

[6] = system: two-spotted spider mite (Tetranychus urticae); assay: Test against two-spotted spider mite (Tetranychus urticae), spray; conditions: concentration of 100 ppm; adult mites on kidney beans; after 7 days
Experimental: as §2, §3, §4
50 to 100 adult two-spotted spider mites were inoculated onto the leaves of kidney beans at the two-true leaf stage, which plant had been cultivated in a pot having a diameter of 6 cm. After one day, test solution at the appropriate concentration was sprayed thereon in a sufficient amount using a spray gun. After the spraying, the plant pot was placed inside a greenhouse, and after 7 days, the acaricidal activity was calculated. An acaricidal activity of 100% means that all mites were killed, whereas an acaricidal activity of 0% means that no mite was killed.

Row | Structure (SMILES) | activity (mortality in %) [1] [%] | activity (mortality in %) [2] [%] | insecticidal activity [3] [%] | activity (mortality in %) [4] [%] | insecticidal activity [5] [%] | acaricidal activity rate [6] [%]
1 | C#CCOC(c1cc(I)c(NC(=O)c2cccc(NC(=O)c3cccnc3Cl)c2)c(I)c1)(C(F)(F)F)C(F)(F)F [1-80] | 80 | 100 | 100 |  |  | 
2 | CCOC(=O)Nc1cccc(C(=O)Nc2c(I)cc(C(OCC)(C(F)(F)F)C(F)(F)F)cc2I)c1 [1-24] |  | 90 | 100 |  |  | 
3 | Cc1cc(C(n2cc(Cl)c(C(F)(F)C(F)(F)F)n2)(C(F)(F)F)C(F)(F)F)cc(C)c1NC(=O)c1cccc(NC(=O)c2cccnc2Cl)c1 [2-120] |  |  | 100 | 90 |  | 
4 | CCOC(c1cc(I)c(NC(=O)c2cccc(NC(=O)c3cccnc3F)c2)c(I)c1)(C(F)(F)F)C(F)(F)F [1-59] | 95 | 100 | 100 |  | 100 | 
5 | CCOC(c1cc(I)c(NC(=O)c2cccc(NC(=O)c3ccc(Cl)nc3)c2)c(I)c1)(C(F)(F)F)C(F)(F)F [1-60] | 100 | 100 | 100 |  | 100 | 100
6 | CCc1cc(C(C#N)(C(F)(F)F)C(F)(F)F)cc(C)c1NC(=O)c1cccc(NC(=O)c2cccnc2Cl)c1 [4-5] |  |  | 100 |  | 100 | 100
7 | CCc1cc(C(n2cc(Cl)cn2)(C(F)(F)F)C(F)(F)F)cc(C)c1NC(=O)c1cccc(NC(=O)c2cccnc2)c1 [2-42] |  |  |  |  |  | 100
8 | Cc1cc(C(n2cc(C(F)(F)F)cn2)C(F)(F)F)cc(C)c1NC(=O)c1cccc(NC(=O)c2cccnc2F)c1 (stereo not drawn) [2-103] | 95 |  | 100 |  | 100 | 
9 | Cc1cc(C(n2cncn2)(C(F)(F)F)C(F)(F)F)cc(Br)c1NC(=O)c1cccc(NC(=O)c2ccccc2F)c1 [2-151] | 90 |  |  |  |  | 
10 | Cc1cc(C(n2cc(C(F)(F)F)cn2)(C(F)(F)F)C(F)(F)F)cc(C)c1NC(=O)c1cccc(NC(=O)c2cccnc2F)c1 [2-108] | 100 |  | 100 |  | 100 | 
11 | Cc1cc(C(n2cc(Br)cn2)(C(F)(F)F)C(F)(F)F)cc(C)c1NC(=O)c1cccc(NC(=O)c2cccnc2Cl)c1 [2-84] | 95 |  | 100 |  |  | 100
12 | Cc1cc(C(n2cc(F)cn2)(C(F)(F)F)C(F)(F)F)cc(C)c1NC(=O)c1cccc(NC(=O)c2cccnc2Cl)c1 [2-6] |  |  | 100 |  | 100 | 100
13 | CCc1cc(C(n2cc(Br)cn2)C(F)(F)F)cc(C)c1NC(=O)c1cccc(NC(=O)c2cccnc2Cl)c1 (stereo not drawn) [2-77] | 90 |  | 100 |  |  | 
14 | CCOC(c1cc(I)c(NC(=O)c2cccc(NC(=O)c3cccc(F)c3)c2)c(I)c1)(C(F)(F)F)C(F)(F)F [1-27] | 90 | 80 | 100 |  | 100 | 100
15 | Cc1cc(C(n2cc(Cl)cn2)(C(F)(F)F)C(F)(F)F)cc(C)c1NC(=O)c1cccc(NC(=O)c2cccnc2Cl)c1 [2-51] | 100 |  | 100 |  |  | 100
16 | CCOC(c1cc(I)c(NC(=O)c2cccc(NC(=O)c3ccc(F)cc3)c2)c(I)c1)(C(F)(F)F)C(F)(F)F [1-28] |  |  | 100 |  | 100 | 100

Row | Structure (SMILES) | activity (mortality in %) [1] [%] | activity (mortality in %) [2] [%] | insecticidal activity [3] [%] | activity (mortality in %) [4] [%] | insecticidal activity [5] [%] | acaricidal activity rate [6] [%]
17 | CCOC(c1cc(I)c(NC(=O)c2cccc(NC(=O)c3ccc(Cl)nc3Cl)c2)c(I)c1)(C(F)(F)F)C(F)(F)F [1-61] |  |  |  |  | 100 | 100
18 | O=C(Nc1c(Br)cc(C(CF)(n2cc(Cl)cn2)C(F)(F)F)cc1Br)c1cccc(NC(=O)c2cccnc2Cl)c1 (stereo not drawn) [2-24] |  |  | 100 |  | 100 | 100
19 | CCCOC(c1cc(I)c(NC(=O)c2cccc(NC(=O)c3ccc(Cl)nc3Cl)c2)c(I)c1)(C(F)(F)F)C(F)(F)F [1-64] |  |  |  |  |  | 100
20 | CCOC(c1cc(I)c(NC(=O)c2cccc(NC(=O)c3ccccc3F)c2)c(I)c1)(C(F)(F)F)C(F)(F)F [1-26] | 100 | 90 | 100 |  | 100 | 
21 | CCOC(c1cc(I)c(NC(=O)c2cccc(NC(=O)c3ccccc3)c2)c(I)c1)(C(F)(F)F)C(F)(F)F [1-25] | 90 | 80 | 100 |  | 100 | 
22 | CCc1cc(C(n2cccc2)(C(F)(F)F)C(F)(F)F)cc(C)c1NC(=O)c1cccc(NC(=O)c2cccnc2Cl)c1 [2-1] |  |  | 100 |  | 100 | 100
23 | CCOC(c1cc(I)c(NC(=O)c2cccc(NC(=O)c3cccnc3Cl)c2)c(I)c1)(C(F)(F)F)C(F)(F)F [1-40] | 90 | 100 | 100 |  | 100 | 100
24 | CC(c1cc(Br)c(NC(=O)c2cccc(NC(=O)c3cccnc3F)c2)c(Br)c1)(n1cc(Br)cn1)C(F)(F)F (stereo not drawn) [2-82] |  |  | 100 |  | 100 | 100
25 | Cc1cc(C(n2cncn2)(C(F)(F)F)C(F)(F)F)cc(C)c1NC(=O)c1cccc(NC(=O)c2cccnc2Cl)c1 [2-148] | 95 |  |  |  |  | 
26 | CCc1cc(C(n2cc(Cl)cn2)(C(F)(F)F)C(F)(F)F)cc(C)c1NC(=O)c1cccc(NC(=O)c2cccnc2Cl)c1 [2-55] |  |  | 100 |  | 100 | 100
27 | Cc1cc(C(n2cc(C(F)(F)F)cn2)(C(F)(F)F)C(F)(F)F)cc(C)c1NC(=O)c1cccc(NC(=O)c2cccnc2Cl)c1 [2-109] | 100 |  | 100 |  | 100 | 
28 | O=C(Nc1c(Br)cc(C(n2cc(Cl)cn2)(C(F)(F)F)C(F)(F)F)cc1Br)c1cccc(NC(=O)c2cccnc2Cl)c1 [2-62] |  |  | 100 |  | 100 | 100
29 | Cc1cc(C(N=[N+]=[N-])(C(F)(F)F)C(F)(F)F)cc(C)c1NC(=O)c1cccc(NC(=O)c2cccnc2Cl)c1 [2-145] |  |  | 100 |  | 100 | 100
30 | CC(c1cc(Br)c(NC(=O)c2cccc(NC(=O)c3cccnc3Cl)c2)c(Br)c1)(n1cc(Br)cn1)C(F)(F)F (stereo not drawn) [2-83] |  |  | 100 |  | 100 | 100
31 | CCc1cc(C(Oc2ccc(Cl)cc2)(C(F)(F)F)C(F)(F)F)cc(C)c1NC(=O)c1cccc(NC(=O)c2cccnc2Cl)c1 [1-109] |  |  | 100 |  | 100 | 100
32 | CCc1cc(C(OCC2CC2)(C(F)(F)F)C(F)(F)F)cc(C)c1NC(=O)c1cccc(NC(=O)c2cccnc2Cl)c1 [1-66] |  |  | 100 |  | 100 | 100
